Laboratory results: US7160867B2 (Isotechnika, Inc., priority 2003, dated 2007)
Entries after “also recorded” stand apart in the source; their conditions may differ.

Key:
[1] = Stability toward hydrolysis in acidic media; format: physicochemical; conditions: 70/30 methanol/0.1N HCl (pH 1.5); free rapamycin by HPLC at 1 hour
[2] = Hydrolysis of rapamycin carbohydrate derivatives in human whole blood; format: in vitro ADME; conditions: spiked in human whole blood; free rapamycin by HPLC at 1 hour
[3] = test system: primary blood lymphocyte cultures (PBMC); experiment: In vitro immunosuppressive activity, PBMC proliferation (alamar blue); format: cell-based; conditions: 3-day culturing, FIG. 5
[4] = Pharmacokinetic profiles in rats after oral dosing (rapamycin in whole blood by LC/MS); format: in vivo, Sprague Dawley rats; conditions: 2.5 or 10 mg/kg
Experimental: The pharmacokinetic profiles in rats of selected rapamycin carbohydrate derivatives were determined to investigate the ability of the derivatives to deliver free rapamycin into the bloodstream in vivo. […] Whole blood was extracted via jugular bleed over 24 hours and frozen at −20° C. until analysis. Whole blood was analyzed by Liquid Chromatography Mass Spectrometry for the presence of rapamycin.

[5] = test system: Sprague-Dawley rats; experiment: Serum cholesterol levels in rats; format: in vivo; conditions: 2.5 mg/kg/day for 12 days
Experimental: Cholesterol levels were measured at the 24-hour trough level on day 11.

[6] = test system: heterotopic heart allografts; experiment: Graft survival of heterotopic heart allografts in rats; format: in vivo, Wistar Furth rats to Lewis rats
Text: If graft dysfunction was noted during the 30-day post-transplantation period, the animal was sacrificed. If the animal survived longer than 30 days post-transplantation, the test and control articles were discontinued and the animal was allowed to continue until graft dysfunction or up to 100 days post-transplantation.

[7] = test system: washed human platelets; experiment: Washed human platelet aggregation assay; conditions: 25 μg/ml, 2 μM ADP, after 8 minutes, FIG. 11
[8] = test system: Beagle dogs; experiment: Gastrointestinal tolerability in beagle dogs
[9] = in plasma and in low and neutral pH buffers at 37° C.; cited from earlier work
[10] = [14C]-rapamycin, healthy male volunteers; cited from earlier work
[11] = 2.5 mg/kg/day oral gavage, day -3 to day 30, N = 6 (derivative n = 5)

SMILES | Extent of Hydrolysis (%) [1] [%] | Extent of Hydrolysis (%) [2] [%] | cell proliferation inhibition / immunosuppressive activity [3] | time to maximum concentration of rapamycin in blood ([4]; FIG. 6) | serum cholesterol level relative to vehicle control group ([5]; 24-hour trough on day 11, FIG. 9) | serum cholesterol level relative to rapamycin group ([5]; 24-hour trough on day 11, p<0.01, FIG. 9) | prolonged survival of the graft over the vehicle control ([6]; 2.5 mg/kg/day) [%] | Average Survival Time (days post-transplant) Mean ± SEM [6, 11] [days post-transplant] | prolonged survival of the graft over the vehicle control ([6]; 10 mg/kg/day) [%] | Average Survival Time (days post-transplant) Mean ± SEM ([6]; 10 mg/kg/day oral gavage, day -3 to day 30, N = 6) [days post-transplant] | platelet aggregation [7] | Observations ([8]; beagle dog 4, oral dose 1 mg/kg, rapamycin given one week after the derivative, 1 mg/kg) | Observations ([8]; beagle dog 4, oral dose 1 mg/kg, rapamycin given one week after the derivative, listed as 42-O-(D-fructosylcarbonyl)rapamycin, 1 mg/kg) | Observations ([8]; beagle dogs, single oral dose 10 mg/kg, 10 mg/kg) | Observations ([8]; beagle dogs, single oral dose 10 mg/kg, listed as 42-O-(D-fructosylcarbonyl)rapamycin, 10 mg/kg) | time to maximum concentration of rapamycin in blood ([4]; FIGS. 6 and 7) | half-life of degradation [9] | share of the total radioactivity in blood [10]
CO[C@H]1C[C@@H]2CC[C@@H](C)[C@@](O)(O2)C(=O)C(=O)N2CCCC[C@H]2C(=O)O[C@H]([C@H](C)C[C@@H]2CC[C@@H](O)[C@H](OC)C2)CC(=O)[C@H](C)/C=C(\C)[C@@H](OC(=O)OCC2(O)OC[C@@H](O)[C@@H](O)[C@@H]2O)[C@@H](OC)C(=O)[C@H](C)C[C@H](C)/C=C/C=C/C=C/1C (stereo partly drawn) [31-O-(D-Fructosylcarbonyl)rapamycin] | <1 | 23 ± 0.5 |  |  |  |  |  |  |  |  |  |  |  |  |  |  |  | 
CO[C@H]1C[C@@H]2CC[C@@H](C)[C@@](O)(O2)C(=O)C(=O)N2CCCC[C@H]2C(=O)O[C@H]([C@H](C)C[C@@H]2CC[C@@H](OC(=O)OCC3(O)OC[C@@H](O)[C@@H](O)[C@@H]3O)[C@H](OC)C2)CC(=O)[C@H](C)/C=C(\C)[C@@H](O)[C@@H](OC)C(=O)[C@H](C)C[C@H](C)/C=C/C=C/C=C/1C (stereo partly drawn) [42-O-(D-Fructosylcarbonyl)rapamycin] | <1 | 28 ± 2 | equivalent to rapamycin | approximately 3 hours | not significantly different | significantly lower | 214 | 41 ± 4 | 341 | 57 ± 4 | does not exhibit a measurable effect | Lethargic; also recorded: Recovered | slight lethargy | Normal | no overt physical changes |  |  | 
CO[C@H]1C[C@@H]2CC[C@@H](C)[C@@](O)(O2)C(=O)C(=O)N2CCCC[C@H]2C(=O)O[C@H]([C@H](C)C[C@@H]2CC[C@@H](O)[C@H](OC)C2)CC(=O)[C@H](C)/C=C(\C)[C@@H](O)[C@@H](OC)C(=O)[C@H](C)C[C@H](C)/C=C/C=C/C=C/1C [Rapamycin] |  |  |  |  |  |  |  | 39 ± 4 |  |  |  |  |  |  |  | approximately 30 minutes | less than 10 hours | approximately 35%
